Measurements taken from patent US20230167073A1 (Teijin Pharma Limited, priority 2020, published 2023).

Molecular target: T1, Human TRPC6 (Homo sapiens, UniProt Q9Y210)
T1 construct: expressed in transfected cells
T1 sequence (Q9Y210 1-931): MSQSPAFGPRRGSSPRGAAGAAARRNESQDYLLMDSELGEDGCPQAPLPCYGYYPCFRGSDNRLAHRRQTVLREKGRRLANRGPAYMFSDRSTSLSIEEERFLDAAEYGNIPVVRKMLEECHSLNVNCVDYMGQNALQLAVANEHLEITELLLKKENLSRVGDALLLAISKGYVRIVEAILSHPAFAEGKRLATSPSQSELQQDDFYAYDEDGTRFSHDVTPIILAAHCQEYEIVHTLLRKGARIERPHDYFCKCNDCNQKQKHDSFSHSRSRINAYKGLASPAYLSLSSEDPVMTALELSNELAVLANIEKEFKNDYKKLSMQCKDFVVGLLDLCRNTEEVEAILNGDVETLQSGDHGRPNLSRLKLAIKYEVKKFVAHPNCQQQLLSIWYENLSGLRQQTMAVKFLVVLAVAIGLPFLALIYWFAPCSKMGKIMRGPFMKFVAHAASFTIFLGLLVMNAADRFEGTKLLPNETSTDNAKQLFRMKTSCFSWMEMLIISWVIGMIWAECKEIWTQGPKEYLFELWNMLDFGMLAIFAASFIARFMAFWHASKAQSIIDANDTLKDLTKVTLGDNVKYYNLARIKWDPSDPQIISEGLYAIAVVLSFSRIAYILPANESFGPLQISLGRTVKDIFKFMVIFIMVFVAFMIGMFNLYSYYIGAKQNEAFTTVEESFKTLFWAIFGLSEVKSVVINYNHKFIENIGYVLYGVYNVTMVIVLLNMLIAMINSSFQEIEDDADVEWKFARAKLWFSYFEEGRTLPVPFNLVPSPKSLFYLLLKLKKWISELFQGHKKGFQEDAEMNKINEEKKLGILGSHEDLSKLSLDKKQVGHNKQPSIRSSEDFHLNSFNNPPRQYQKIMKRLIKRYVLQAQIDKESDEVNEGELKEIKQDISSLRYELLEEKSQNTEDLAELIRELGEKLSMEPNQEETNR
Assay: Evaluation of TRPC6 channel inhibitory activity (1), FLIPR Calcium 5 Assay Kit, OAG stimulation (Compound Nos. 1-1293)
Assay type: cell-based
Conditions: Human TRPC6 stably-expressing cells, OAG 30 μM, FLIPR Calcium 5 Assay Kit; read-out: Inhibitory activity (pIC50 class) (converted)
In short: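 The FLIPR signal is maximum fluorescence after 30 μM OAG minus minimum before compound, measured in a human TRPC6 stable line loaded with Calcium 5 dye. Compounds were preincubated 20 min. pIC50 came from four-parameter logistic fitting of inhibition rates and is given as symbol ranges.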

Question: With Cc1nc(Oc2cc(C#N)ccc2-c2ccc3c(c2)C(O)C(N)CC3)cc(-c2ccccc2)n1 (stereo not shown) [Compound 191, 4-(7-amino-8-hydroxy-5,6,7,8-tetrahydronaphthalen-2-yl)-3-(2-methyl-6-phenylpyrimidin-4-yl)oxybenzonitrile] as the molecule, how does the IC50 read?
Answer: > 1000 nM

Question: Cc1cc(Oc2cc(C#N)ccc2-c2ccc([C@H](O)CN)cn2)cc(OC2COC2)n1 [compound 591, 4-[5-[(1S)-2-amino-1-hydroxyethyl]pyridin-2-yl]-3-[2-methyl-6-(oxetan-3-yloxy)pyridin-4-yl]oxybenzonitrile] was tested. Which IC50 did it give?
Answer: > 1000 nM

Question: Which IC50 does the source give for Cc1nc(OCCC(C)(C)C)cc(Oc2cc(C#N)ccc2-c2ccc(CCN)cc2)n1 [Compound 42, 4-[4-(2-aminoethyl)phenyl]-3-[6-(3,3-dimethylbutoxy)-2-methylpyrimidin-4-yl]oxybenzonitrile] here?
Answer: > 1000 nM

Question: Cn1nc(C(F)(F)F)cc1Oc1cc(C#N)ccc1-c1ncc(CCN)cn1 [compound 812, 4-[5-(2-aminoethyl)pyrimidin-2-yl]-3-[2-methyl-5-(tritluoromethyl)pyrazol-3-yl]oxybenzonitrile] was tested. Which IC50 did it give?
Answer: < 10 nM

Question: How did the IC50 turn out when N#Cc1ccc(-c2ncc(CCN)cn2)c(Sc2nnc(N3CCCCC3)s2)c1 [compound 1270, 4-[5-(2-aminoethyl)pyrimidin-2-yl]-3-[(5-piperidin-1-yl-1,3,4-thiadiazol-2-yl)sulfanyl]benzonitrile] was run?
Answer: 10 to 1000 nM

Question: CCN(CC(F)F)c1cc(Oc2cc(F)ccc2-c2ncc(CCN)cn2)n(C)n1 [compound 989, 5-[2-[5-(2-aminoethyl)pyrimidin-2-yl]-5-fluorophenoxy]-N-(2,2-difluoroethyl)-N-ethyl-1-methylpyrazole-3-amine] was tested. Which IC50 did it give?
Answer: < 10 nM

Question: For NCc1cnc(-c2ccc(F)cc2C(=O)c2cnn(CC(F)F)c2)nc1 [compound 1099, [2-[5-(aminomethyl)pyrimidin-2-yl]-5-fluorophenyl]-[1-(2,2-difluoroethyl)pyrazol-4-yl]methanone], which IC50 is on record?
Answer: > 1000 nM

Question: For Cc1ccc(-c2cn(Cc3cc(C#N)ccc3-c3ccc(CCN)cn3)cn2)cc1 [compound 1146, 4-[5-(2-aminoethyl)pyridin-2-yl]-3-[[4-(4-methylphenyl)imidazol-1-yl]methyl]benzonitrile], which IC50 is on record?
Answer: 10 to 1000 nM

Question: With N#Cc1ccc(-c2ncc(CCN)cn2)c(C(=O)c2nnc(N3CCOCC3)s2)c1 [compound 1096, 4-[5-(2-aminoethyl)pyrimidin-2-yl]-3-(5-morpholin-4-yl-1,3,4-thiadiazole-2-carbonyl)benzonitrile] as the molecule, how does the IC50 read?
Answer: 10 to 1000 nM

Question: For Cn1nc(-c2cnccn2)cc1Oc1cc(C#N)ccc1-c1ncc(CCN)cn1 [compound 950, 4-[5-(2-aminoethyl)pyrimidin-2-yl]-3-(2-methyl-5-pyrazin-2-ylpyrazol-3-yl)oxybenzonitrile], which IC50 is on record?
Answer: < 10 nM

Question: Cn1nc(-c2ccccn2)cc1Oc1cc(C#N)ccc1-c1ncc(CN)cn1 [compound 394, 4-[5-(aminomethyl)pyrimidin-2-yl]-3-(2-methyl-5-pyridin-2-ylpyrazol-3-yl)oxybenzonitrile] was tested. Which IC50 did it give?
Answer: < 10 nM

Question: Which IC50 does the source give for Cc1nn(-c2ccccn2)cc1Oc1cc(F)ccc1-c1ncc(CCN)cn1 [compound 969, 2-[2-[4-fluoro-2-(3-methyl-1-pyridin-2-ylpyrazol-4-yl)oxyphenyl]pyrimidin-5-yl]ethanamine] here?
Answer: < 10 nM

Question: Which IC50 does the source give for NCCc1ccc(-c2ccc(F)cc2C(=O)c2cnn(C3CCC3)c2)nc1 [compound 1110, [2-[5-(2-aminoethyl)pyridin-2-yl]-5-fluorophenyl]-(1-cyclobutylpyrazol-4-yl)methanone] here?
Answer: < 10 nM

Question: Which IC50 does the source give for CC(C)c1cc(Oc2cc(C#N)ccc2-c2ccc(CN)n3ccnc23)n(C)n1 [compound 711, 4-[5-(aminomethyl)imidazo[1,2-a]pyridin-8-yl]-3-(2-methyl-5-propan-2-ylpyrazol-3-yl)oxybenzonitrile] here?
Answer: < 10 nM

Question: N#Cc1ccc(-c2ccc(CCN)cc2)c(Cn2ccc(-c3ccccc3)n2)c1 [compound 1112, 4-[4-(2-aminoethyl)phenyl]-3-[(3-phenylpyrazol-1-yl)methyl]benzonitrile] was tested. Which IC50 did it give?
Answer: > 1000 nM

Question: How did the IC50 turn out when N#Cc1ccc(-c2ncc(CN)cn2)c(Oc2cc(N3CCCCC3)nnc2Cl)c1 [compound 815, 4-[5-(aminomethyl)pyrimidin-2-yl]-3-(3-chloro-6-piperidin-1-ylpyridazin-4-yl)oxybenzonitrile] was run?
Answer: 10 to 1000 nM

Question: Which IC50 does the source give for NCCc1cnc(-c2ccc(F)cc2C(=O)c2cnn(CC(F)F)c2)nc1 [compound 1098, [2-[5-(2-aminoethyl)pyrimidin-2-yl]-5-fluorophenyl]-[1-(2,2-difluoroethyl)pyrazol-4-yl]methanone] here?
Answer: > 1000 nM

Question: How did the IC50 turn out when Cc1cc(Oc2cc(C#N)ccc2-c2cc(CN)cn3cnnc23)cc(N2CCOCC2)n1 [compound 733, 4-[6-(aminomethyl)-[1,2,4]triazolo[4,3-a]pyridin-8-yl]-3-(2-methyl-6-morpholin-4-ylpyridin-4-yl)oxybenzonitrile] was run?
Answer: > 1000 nM

Question: Cn1nc(-c2ccccc2)cc1Oc1cc(C#N)ccc1-c1ncc(C(O)CN)s1 (stereo not shown) [Compound 225, 4-[5-(2-amino-1-hydroxyethyl)-1,3-thiazol-2-yl]-3-(2-methyl-5-phenylpyrazol-3-yl)oxybenzonitrile] was tested. Which IC50 did it give?
Answer: < 10 nM

Question: With Cc1nc(N2CCOCC2)ccc1Oc1cc(C#N)ccc1-c1ncc(CCN)cn1 [compound 921, 4-[5-(2-aminoethyl)pyrimidin-2-yl]-3-(2-methyl-6-morpholin-4-ylpyridin-3-yl)oxybenzonitrile] as the molecule, how does the IC50 read?
Answer: > 1000 nM

Question: Which IC50 does the source give for Cc1nc(Oc2cc(C#N)ccc2-c2ncc(CCN)cn2)cc(O[C@@H]2CCOC2)n1 [compound 889, 4-[5-(2-aminoethyl)pyrimidin-2-yl]-3-[2-methyl-6-[(3R)-oxolan-3-yl]oxypyrimidin-4-yl]oxybenzonitrile] here?
Answer: > 1000 nM

Question: N#Cc1ccc(-c2ncc(CN)cn2)c(C(=O)c2sc(N3CCOCC3)nc2C(F)(F)F)c1 [compound 1087, 4-[5-(aminomethyl)pyrimidin-2-yl]-3-[2-morpholin-4-yl-4-(trifluoromethyl)-1,3-thiazole-5-carbonyl]benzonitrile] was tested. Which IC50 did it give?
Answer: < 10 nM

Question: For Cn1nc(-c2ncccc2F)cc1Oc1cc(C#N)ccc1-c1ncc(CN)cn1 [compound 649, 4-[5-(aminomethyl)pyrimidin-2-yl]-3-[5-(3-fluoropyridin-2-yl)-2-methylpyrazol-3-yl]oxybenzonitrile], which IC50 is on record?
Answer: 10 to 1000 nM

Question: With Cc1nc(Oc2cc(C#N)ccc2-c2cnc(C(O)CN)s2)cc(-c2ccccc2)n1 (stereo not shown) [Compound 263, 4-[2-(2-amino-1-hydroxyethyl)-1,3-thiazol-5-yl]-3-(2-methyl-6-phenylpyrimidin-4-yl)oxybenzonitrile] as the molecule, how does the IC50 read?
Answer: 10 to 1000 nM

Question: Cn1nc(C2CC2)cc1Oc1cc(C#N)ccc1-c1ccc(CCN)cc1 [Compound 213, 4-[4-(2-aminoethyl)phenyl]-3-(5-cyclopropyl-2-methylpyrazol-3-yl)oxybenzonitrile] was tested. Which IC50 did it give?
Answer: < 10 nM

Question: For Cn1nc(N2CCCC2)cc1C(=O)c1cc(C#N)ccc1-c1ncc(CCN)cn1 [compound 1071, 4-[5-(2-aminoethyl)pyrimidin-2-yl]-3-(2-methyl-5-pyrrolidin-1-ylpyrazole-3-carbonyl)benzonitrile], which IC50 is on record?
Answer: < 10 nM

Question: With Cc1nn(-c2ccccn2)cc1Oc1cc(C#N)ccc1-c1ncc(CCN)cn1 [compound 832, 4-[5-(2-aminoethyl)pyrimidin-2-yl]-3-(3-methyl-1-pyridin-2-ylpyrazol-4-yl)oxybenzonitrile] as the molecule, how does the IC50 read?
Answer: < 10 nM

Question: Which IC50 does the source give for Cn1nc(-c2ccccc2)cc1Oc1cc(C#N)ccc1-c1ncc(CCN)cn1 [Compound 274, 4-[5-(2-aminoethyl)pyrimidin-2-yl]-3-(2-methyl-5-phenylpyrazol-3-yl)oxybenzonitrile] here?
Answer: < 10 nM

Question: With Cc1ccc(-c2cc(Oc3cc(C#N)ccc3-c3ccc(CCN)nc3)nc(C)n2)nc1 [Compound 189, 4-[6-(2-aminoethyl)pyridin-3-yl]-3-[2-methyl-6-(5-methylpyridin-2-yl)pyrimidin-4-yl]oxybenzonitrile] as the molecule, how does the IC50 read?
Answer: > 1000 nM

Question: Which IC50 does the source give for Cc1cc(Oc2cc(C#N)ccc2-c2ccc([C@H](O)CN)cn2)cc(N2CCOCC2)n1 [compound 429, 4-[5-[(1S)-2-amino-1-hydroxyethyl]pyridin-2-yl]-3-(2-methyl-6-morpholin-4-ylpyridin-4-yl)oxybenzonitrile] here?
Answer: < 10 nM

Question: Which IC50 does the source give for Cn1nc(C2CCOCC2)cc1Oc1cc(F)ccc1-c1ncc(CN)cn1 [compound 1007, [2-[4-fluoro-2-[2-methyl-5-(oxan-4-yl)pyrazol-3-yl]oxyphenyl]pyrimidin-5-yl]methanamine] here?
Answer: 10 to 1000 nM
